Laboratory results published in patent publication US20180193659A1, “PHOTODYNAMIC THERAPY LIGHT IRRADIATING DEVICE AND LIGHT IRRADIATING METHOD” (Public University Corporation Nagoya City University, priority 2015, published 2018).
Like-named read-outs stand apart in the source and are kept apart here.

Assays:
[1] = system: HaCaT cells (human skin keratinocyte cell line); test: Experimental Example 2: cell survival rate of 5-ALA-treated HaCaT cells after 635 nm irradiation under pulse width modulation; type: cell-based; details: 1 mM 5-ALA, 12 J/cm^2, 125 kHz PWM, off time not more than 4 μs
Description: The irradiation was performed using a pulse width modulation control power supply (PWM power supply) with a frequency of 125 kHz capable of adjusting light using pulse width modulation at 256 modes as shown in FIG. 12. Specifically, in the condition (1), light irradiation was performed using pulse width modulation control in which the off time (t(off)) in pulse width modulation was 5.6 μs. In the condition (2), light irradiation was performed using pulse width modulation control in which the off time (t(off)) in pulse width modulation was 5.3 μs. In the condition (3), light irradiation was performed using pulse width modulation control in which the off time (t(off)) in pulse width modulation was 4.8 μs. In the condition (4), light irradiation was performed using pulse width modulation control in which the off time (t(off)) in pulse width modulation was 4.0 μs. In the condition (5), light irradiation was performed using pulse width modulation control in which the off time (t(off)) in pulse width modulation was 2.7 μs. In all the conditions (1) to (5), the pulse period (T) was 8 μs. In the condition (6), light irradiation in which the off time (t(off)) in pulse width modulation was 0 μs, that is, light irradiation that was continuous irradiation under the same condition as that in amplitude variable control was performed.

[2] = system: HaCaT cells (human skin keratinocyte cell line); details: 1 mM 5-ALA; for PDT effect (1 - cell survival rate): 0.4 J/cm^2
Description: After 4 hours, the plurality of plates except for one plate were each subjected to five kinds of single-wavelength irradiation and four kinds of multiple-wavelength irradiation (specifically, two-wavelength irradiation) at respective amounts of irradiation of 0.2 J/cm^2, 0.4 J/cm^2, 0.6 J/cm^2, 0.8 J/cm^2, 1.0 J/cm^2, and 1.2 J/cm^2. Specifically, in the five kinds of single-wavelength irradiation, irradiation with each of light having a wavelength of 405 nm, light having a wavelength of 505 nm, light having a wavelength of 545 nm, light having a wavelength of 570 nm, and light having a wavelength of 635 nm was performed. The four kinds of multiple-wavelength irradiation with light in which the light having the wavelength of 405 nm and the light having the wavelength of 505 nm were combined, light in which the light having the wavelength of 405 nm and the light having the wavelength of 545 nm were combined, light in which the light having the wavelength of 405 nm and the light having the wavelength of 570 nm were combined, and light in which the light having the wavelength of 405 nm and the light having the wavelength of 635 nm were combined were performed. In the single-wavelength irradiation and the multiple-wavelength irradiation, as a light source of the light having the wavelength of 405 nm, an LED element in which the energy of light from the light source was 11 mW/cm^2 (irradiation distance: 100 mm) was used. […]
Subsequently, in the plurality of plates that had been irradiated with light and the plate that had not been irradiated with light, cultivation was performed over 18 hours. The cell survival rate was measured by an MTT assay using an XTT cell proliferation assay kit.
On the basis of the results of cell survival rate at an amount of irradiation of 0.4 J/cm^2, a therapeutic effect by a photodynamic therapy (hereinafter also referred to as “PDT effect”) was calculated by the following expression (1).
Herein, the cell survival rate reference value is a value calculated by the following expression (2). […]

`NCC(=O)CCC(=O)O` [5-ALA, δ-aminolevulinic acid] was tested. Which “PDT effect under pulse width modulation versus continuous irradiation” value [1] did it give?
Its value is “the same as that in continuous irradiation”.

What about the “PDT effect, single-wavelength irradiation” value ([2]; 4 h, 405 nm compared with 505, 545, 570 and 635 nm) of the same compound?
The value was “most excellent PDT effect”.

And the “PDT effect (1 - cell survival rate)” value ([2]; 405 nm + 505 nm)?
The value was “excellent PDT effect is obtained”.

And the “PDT effect (1 - cell survival rate)” value ([2]; 405 nm + any of 545, 570, 635 nm)?
Its value is “sufficient PDT effect is not obtained”.
